The values below come from patent publication US11530220B2, “Substituted imidazo[1,5-a]pyrazines and [1,2,4]triazolo[4,3-a]pyrazines for the modulation of AhR” (IDEAYA BIOSCIENCES, INC., priority 2018, dated 2022).

This experiment has as its target T1, hAhR (Homo sapiens, UniProt P35869).
T1 construct: Stably integrated DRE-luciferase cell lines were generated by transducing the both cell lines with Cignal XRE luciferase reporter (Qiagen) lentiviral particles; endogenous in cells; host or cells: HEPG2 (human hepatoma) with stably integrated XRE/DRE-luciferase reporter
T1 sequence (P35869 11-848): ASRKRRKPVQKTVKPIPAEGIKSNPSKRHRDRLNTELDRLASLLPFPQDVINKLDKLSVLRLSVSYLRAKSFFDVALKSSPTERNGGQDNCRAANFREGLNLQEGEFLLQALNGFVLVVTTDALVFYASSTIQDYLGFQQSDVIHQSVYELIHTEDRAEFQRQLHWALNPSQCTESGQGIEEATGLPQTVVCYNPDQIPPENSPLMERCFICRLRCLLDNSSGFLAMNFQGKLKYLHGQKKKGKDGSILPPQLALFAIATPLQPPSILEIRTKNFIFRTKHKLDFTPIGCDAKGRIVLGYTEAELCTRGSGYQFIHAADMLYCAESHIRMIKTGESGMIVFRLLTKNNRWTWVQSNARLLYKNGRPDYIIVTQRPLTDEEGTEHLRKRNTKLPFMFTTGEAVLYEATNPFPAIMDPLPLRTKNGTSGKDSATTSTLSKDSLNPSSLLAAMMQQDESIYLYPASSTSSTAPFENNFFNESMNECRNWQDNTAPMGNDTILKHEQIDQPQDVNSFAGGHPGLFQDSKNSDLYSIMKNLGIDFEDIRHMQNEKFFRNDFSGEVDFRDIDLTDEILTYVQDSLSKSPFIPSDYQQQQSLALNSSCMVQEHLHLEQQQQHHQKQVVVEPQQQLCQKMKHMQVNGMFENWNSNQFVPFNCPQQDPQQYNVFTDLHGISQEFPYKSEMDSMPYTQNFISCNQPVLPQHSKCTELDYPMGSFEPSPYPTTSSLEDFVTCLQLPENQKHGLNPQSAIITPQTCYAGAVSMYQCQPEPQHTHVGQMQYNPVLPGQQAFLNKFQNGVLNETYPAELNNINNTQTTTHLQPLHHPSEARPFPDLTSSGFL
Briefly: DRE-luciferase transcriptional assay, antagonist mode, in HEPG2 DRE-Luc cells stimulated with TCDD. It counts as cell-based. Particulars: for Emax: read-out: HEPG2 % Max Inhibition. How it is done: HEPG2 and HEPA1C1C7 cells were maintained in MEM and αMEM without nucleosides supplemented with 10% heat inactivated FBS respectively. Stably integrated DRE-luciferase cell lines were generated by transducing the both cell lines with Cignal XRE luciferase reporter (Qiagen) lentiviral particles according to the manufacturer protocol. For both cell lines stably integrated reporter cell lines were selected for the presence of 2 μg/mL puromycin. Following selection of stably integrated cell line pools, clonal cell lines were isolated by limiting dilution in 96-well plates. Transcriptional assays were performed by seeding 100 μL of cells at a density of 250,000 or 100,000 cells/mL, for HEPG2 and HEPA1C1C7 DRE-Luc cells respectively, into 96-well cell culture plates in OptiMEM supplemented with 0.5% heat inactivated FBS and allowed to attach overnight. For antagonist assays, the compounds were added in a semi-log dose response using a D300e Digital Dispenser (Tecan) followed normalization with vehicle (DMSO). Immediately following compound addition […] of 2,3,7,8-Tetrachlorodibenzo-p-dioxin (TCDD) was added to the cells to a final concentration of 3 nM or 0.3 nM for the HEPG2 and HEPA1C1C7 DRE-Luc cells respectively. Following 24 h incubation the medium was removed and the cells were lysed in 25 μL of Reporter Lysis Buffer (Promega). Firefly luciferase activity was measured immediately following the addition of 50 μL Luciferase Assay Reagent (Promega). The percent maximal activity for each point was determined using the following equation: 100−(RLUsample−RLUvehicle−TCDD)/(RLUvehicle+TCDD RLUvehicle−TCDD)*100. The relative IC50, defined as the compound concentration required to reduce the TCDD induced response between the top and bottom plateau of each individual dose response curve by half, for each compound was determined using Prism 7 (GraphPad Software).

Setting [1] is: HEPG2 DRE-Luc cells, 3 nM TCDD, 24 h incubation.
The mark [2] stands for this setting: HEPG2 DRE-Luc cells, 3 nM TCDD, 24 h incubation, relative IC50, read-out: IC50 hAhR (antagonist mode).

Read-outs that look alike come from different tables or passages of the source.

What is called IC50 is the concentration needed to halve the response being measured.

With `Cc1ncc(-c2cn3c(C(C)C)cnc3c(NCCc3c[nH]c4cccc(F)c34)n2)cc1F` [Example 26], the Emax under setting [1] was 98%. For the same compound, under setting [2], the IC50 was in the range of 200 to 500 nM.

Regarding `Cc1ncc(-c2cn3c(C(C)C)cnc3c(NCCc3c[nH]c4cccc(F)c34)n2)cn1` [Example 27, [2-(4-fluoroindol-3-yl)ethyl][3-isopropyl-6-(2-methylpyrimidin-5-yl)(4-hydroimidazo[1,2-a]pyrazin-8-yl)]amine], the Emax under setting [1] was 100%. The IC50 under setting [2] lay in the range of 200 to 500 nM.

On to `CC(C)c1cnc2c(NCc3cccc4[nH]ccc34)nc(-c3cncc(F)c3)cn12` [Example 28], for which the Emax under setting [1] was 33%. Besides, the IC50 under setting [2] lay within 500 to 1000 nM.

On to `CC(C)c1cnc2c(NCCn3ccc4ccccc43)nc(-c3cncc(F)c3)cn12` [Example 29], for which the IC50 fell in the range of 500 to 1000 nM. In addition, the Emax (HepG2, 24 h) came to 100%.

As for `CC(C)c1cnc2c(NCCn3cnc4ccccc43)nc(-c3cncc(F)c3)cn12` [Example 30, (2-benzimidazolylethyl)[6-(5-fluoro(3-pyridyl))-3-isopropyl(4-hydroimidazo[1,2-a]pyrazin-8-yl)]amine], the IC50 under setting [2] is 1000 to 10000 nM. The Emax (HepG2, 24 h) came to 94%.

Turning to `Cc1nccn1-c1cn2c(C(C)C)cnc2c(NCc2ccc(C(N)=O)cc2)n1` [Example 31, 4-({[3-isopropyl-6-(2-methylimidazolyl)-4-hydroimidazo[1,2-a]pyrazin-8-yl]amino}methyl)benzamide], the Emax under setting [1] turned out to be 31%. In addition, the IC50 under setting [2] fell in the range of 1000 to 10000 nM.

`Cc1nccn1-c1cn2c(C(C)C)cnc2c(OCCc2c[nH]c3ccccc23)n1` [Example 32, 8-(2-indol-3-ylethoxy)-3-(methylethyl)-6-(2-methylimidazolyl)-4-hydroimidazo[1,2-a]pyrazine]: the Emax under setting [1] was determined as 100%. Further, the IC50 under setting [2] lay within 200 to 500 nM.
